Holding throughout (test): graphene oxide FRET fluorescence recovery with DNase I amplification
Conditions in all cases: 5 mM Mg2+, 15 mM Na+, 20 mM Tris-HCl, 0.001% PEG 900, pH 8.0

Assay [1] concerns Cy3-modified sulfadimethoxine aptamer (P1) (DNA, aptamer) GAGGGCAACGAGTGTTTATAGA
Assay [2] relates to FAM-modified kanamycin aptamer (P2) (DNA, aptamer) TGGGGGTTGAGGCTAAGCCGA
Assay [3] relates to Cy5-modified ampicillin aptamer (P3) (DNA, aptamer) GCGGGCGGTTGTATAGCGG
The mark [4] stands for this setting: 10-500 ng/mL, room temperature, then 37 °C with DNase I.
Where [5] appears, read: 500 ng/mL, mixed aptamers, very weak signal change.

Structures are written as SMILES.

`COc1cc(NS(=O)(=O)c2ccc(N)cc2)nc(OC)n1`: the binding result in assay [1] (setting [4]) is recorded as “yes”; in assay [2] (setting [5]), “no”; in assay [3] (setting [5]), “no”.
Turning to `NC[C@H]1O[C@H](O[C@H]2[C@H](O)[C@@H](O[C@H]3O[C@H](CO)[C@@H](O)[C@H](N)[C@H]3O)[C@H](N)C[C@@H]2N)[C@H](O)[C@@H](O)[C@@H]1O`, the binding result in assay [1] (500 ng/mL kanamycin with 500 ng/mL ampicillin, mixed aptamers) is on record as “no”; in assay [2] (setting [4]), “yes”.
Turning to `CC1(C)S[C@@H]2[C@H](NC(=O)[C@H](N)c3ccccc3)C(=O)N2[C@H]1C(=O)O`, the binding result was “no” in assay [1] (500 ng/mL, with kanamycin none, alone weak signal change); “weak” in assay [2] (500 ng/mL, mixed aptamers, weak signal change only); “yes” in assay [3] (setting [4]).

The values above are taken from PMC6529438 (2019).
